System: Plasmodium falciparum
Assay: GSK_TCMDC: Inhibition of Plasmodium falciparum 3D7 in whole erythrocytes, using parasite LDH activity as an index of growth.
Format: functional, organism-based
Settings: Plasmodium falciparum, 3D7

Structure (SMILES) | XC50 [µM]
O=C(/C=N/O)Nc1ccccc1[N+](=O)[O-] | 0.785
Nc1nc(N)c2cc(S(=O)(=O)c3ccc4ccccc4c3)ccc2n1 | 0.0368
COc1ccc(-c2ccc(NC(=O)c3ccc(Cl)cc3)cc2)cc1CN(C)CCN(C)C | 0.675
COc1cccc(CNC(=O)c2ccnc(-c3ccc(CNCCOc4ccccc4)cc3)c2)c1 | 1.2
Nc1nnc(-c2ccc(Cl)c(Br)c2)c(N)n1 | 1.04
Cc1cccc2nc(-c3cccc(-c4ccc(CN5CCCC5CN)cc4)c3)[nH]c12 (centres undefined) | 0.76
CC(C)N1CCC(NC(=O)N2CCCN(c3ncnc4cc(-c5ccccc5)sc34)CC2)CC1 | 0.861
O=C(NCCN1CCCCC1)c1cccc(Nc2nccc(Nc3ccc(Oc4ccccc4)cc3)n2)c1 | 0.273
Clc1cc(Nc2ncnc3sc(C#Cc4ncc[nH]4)cc23)ccc1OCc1ccccn1 | 1.11
FC(F)(F)c1ccc2[nH]c(-c3cccc(-c4cccc(CNCCN5CCNCC5)c4)c3)nc2c1 | 0.937
O=S(=O)(Nc1cc2c(cc1OCc1ccccc1)CCN(C1CCC1)CC2)c1ccc(-c2ccc(Cl)cc2)cc1 | 1.14
CCCCC(N)COc1cccc2c(-c3ccncc3)c(-c3cccc(NC(=O)Nc4ccccc4)c3)nn12 (centres undefined) | 0.878
COc1cccc(CN2CCCC(OC(c3ccccc3)c3ccccc3)C2)c1O (centres undefined) | 0.93
Oc1cc2c(cc1CN1CCN(Cc3ccc(Cl)s3)CC1)CCC2 | 0.616
O=C(/C=C/c1cc(F)c(F)cc1F)N1CCC(CN2CCC(c3c[nH]c4ccccc34)CC2)CC1 | 0.995
COc1ccc2ncc(F)c(CCN3CCC(NCc4cc(F)c5c(c4)OCCO5)CC3)c2n1 | 0.346
CCC[C@@H](C(=O)NCCc1cccc(OC)c1)N1C(=O)c2c(ccc(OC)c2OC)C1C(=O)Nc1c(C)cccc1C (some centres undefined) | 0.808
COc1ccc(Br)cc1/C=C/C(=O)Nc1ccc(C2CCN(C)CC2)cc1 | 0.502
COc1ccc(CN(C)CCCOc2ccc(NC(=O)c3cccc4c(=O)c5cccc(C)c5[nH]c34)cc2)cc1OC | 0.889
CC(C)(C)c1ccc(NC(=O)c2cccc(CN3CCCN(Cc4ccc(F)cc4)CC3)c2)cc1 | 0.989
Cc1cccc2nc(-c3cccc(-c4cccc(NC(=O)Nc5cccc(C#N)c5)c4)c3)[nH]c12 | 0.104
CC(C)(C)c1ccc(CN(C[C@@H](O)CNS(=O)(=O)c2cc(Cl)cc(Cl)c2)C(C)(C)C)cc1 | 0.935
Cc1cc(N2CCNCC2)c2cc(NC(=O)Nc3ccc(Cl)c(Cl)c3)ccc2n1 | 0.313
COc1ccc(C(c2ccc(N(C)C)cc2)c2ccc(N(C)C)cc2)cc1 | 0.0648
Cc1nc(C)c(-c2ccc(Oc3cccc(OC(F)(F)F)c3)cc2)c(O)c1Br | 0.0171

Structure (SMILES) | XC50 [µM]
N#Cc1c(N)n(CCc2ccc(F)cc2)c2nc3ccccc3nc12 | 0.973
Cc1cc(N(C)C)nc(Nc2ccc(NC(=O)CCc3ccccc3)cc2)n1 | 0.851
O=C(Nc1ccc(Cl)cc1)c1ccc(CN2CCCN(CC3CCCCC3)CC2)cc1 | 0.22
CCCC(C)C(=O)N1CCOC(COCc2cccc(C(F)(F)F)c2)(c2ccc(Cl)cc2)C1 (centres undefined) | 0.403
C[C@H](CNc1ccnc(Nc2ccc3[nH]c(=O)[nH]c3c2)n1)c1ccccc1 | 1.31
O=C(/C=C/c1ccsc1)N1CCC(CCN2CCC(c3c[nH]c4ccccc34)CC2)CC1 | 0.905
FC(F)(F)c1ccc2c(NN=Cc3cccc(Cl)c3)ccnc2c1 | 0.838
CCCC(C)Nc1nc(C)cc(N[C@@H](CC(C)C)C(=O)NC2CCCC2)n1 (some centres undefined) | 1.08
N=C(N)NN=Cc1cc([N+](=O)[O-])ccc1Sc1ccccc1CO | 1.46
COc1ccc(F)cc1-c1ccccc1CNC(=O)CN(C)S(=O)(=O)c1cc(C)cc(Cl)c1C | 0.665
O=C(NCCCCN1CCC(c2c[nH]c3ccccc23)CC1)c1sc(-c2ccc(C(F)(F)F)cc2)nc1CO | 1.2
N#CCc1ccc(Nc2nccc(Nc3ccc(Oc4ccccc4)cc3)n2)cc1 | 0.805
COc1ccc(-c2ccc(NC(=O)c3ccc(C#N)cc3)cc2)cc1CN1CCN(C)CC1 | 0.721
CC(C)(C)COc1ccc2c(N)n[nH]c2c1 | 0.789
CC(C)(C)OC(=O)/C=C(\C(=O)OCc1ccc([N+](=O)[O-])cc1)c1csc(NC(c2ccccc2)(c2ccccc2)c2ccccc2)n1 | 0.861
COc1ccc2nccc([C@@H](O)CN3CCC(NCc4cc5c(Cl)cccc5[nH]4)CC3)c2c1 | 0.155
O=C(c1ccccc1NN=C1C(=O)N(c2ccccc2)N=C1c1ccccc1)N1CCOCC1 | 0.351
Clc1ccc(Nc2nc3nonc3nc2Nc2ccc(Cl)c(Cl)c2)cc1 | 0.645
CC(=O)C1(c2ccccc2)CCN(CCC2(c3ccc(Cl)c(Cl)c3)CN(C(=O)C3CCCCC3)CCO2)CC1 (centres undefined) | 0.314
COc1ccc(CCNCc2ccc3c(C)cc(N)nc3c2)cc1 | 0.568
CCC(C)NC(=O)Nc1ccc(-c2cccc(-c3nc4cccc(C)c4[nH]3)c2)cc1 (centres undefined) | 0.189
COc1ccc(C(=O)Nc2ccc(-c3nc4cc(C)ccc4[nH]3)cc2)cc1OC | 0.761
CCc1ccc(C2CCN(CCCCNC(=O)c3ccc(NC(=O)c4ccc(Cl)cc4)cc3)CC2)c(OCC(=O)OC)c1 | 1.03
CCCOc1ccc2ccccc2c1CNCCCCCCNCc1c(OCCC)ccc2ccccc12 | 0.791
O=C(Nc1ccncc1)Nc1ccc2c(c1)CCN(C1CCC1)CC2 | 1.13

Structure (SMILES) | XC50 [µM]
CN1CCN(CCCNc2ncc3c(-c4ccc(NC(=O)Nc5cc(C(F)(F)F)ccc5F)c(F)c4)nn(C)c3n2)CC1 | 0.859
CC(NCCC1CCC(NC(=O)N[C@H](C)C(O)(c2ccccc2)c2ccccc2)CC1)c1cccc2ccccc12 (some centres undefined) | 1.1
CN1CCCC(CN2CCN(Cc3cccc(-c4ccc(-c5nc6cc(F)ccc6[nH]5)cc4)c3)CC2)C1 (centres undefined) | 0.139
Cc1ccc2ccccc2c1CCCON1C(=N)N=C(N)NC1(C)C | 0.0032
Oc1ccc(CCNCCCCNCCc2ccc(Cl)cc2)cc1O | 0.843
COc1c(C2CCN(CCCCNC(=O)c3cc(-c4ccc(Cl)cc4)oc3C)CC2)ccc2c1CCCC2 | 0.882
COc1ccc(N2C(N)=NC(N)=NC2(C)C)cc1 | 0.113
CC(C)C[C@@H](NC(=O)OC(C)(C)C)C(=O)Nc1ccc(Cc2ccc(NC(=O)[C@@H](CC(C)C)NC(=O)OC(C)(C)C)cc2)cc1 | 0.207
COc1cc(Cc2cnc(N)nc2N)cc(OCCCOc2ccccc2)c1OC | 1.08
O=C(NCc1ccccc1)c1ncn(CCCN2CCC(N3CCCC3)CC2)c1-c1ccc(Cl)c(Cl)c1 | 1.12
O=C(NCC1CCN(Cc2ccc3c(c2)OCCO3)C1)c1cc(-c2ccccc2F)cs1 (centres undefined) | 1.02
OC(c1cccc2ccccc12)C1CN(CCc2ccccc2)CCC1(O)c1ccccc1 (centres undefined) | 0.145
COC(=O)c1ccc(CCCNCC(O)c2cccc(C(F)(F)F)c2)cc1 (centres undefined) | 0.803
O=c1cc(NCCCNCc2ccc(C(F)(F)F)s2)[nH]c2ccccc12 | 0.2
CCOc1cc(C)ccc1C1CCN(CCN2CCC(CNC(=O)c3ccc(-c4ccc(C(F)(F)F)cc4)cc3)CC2)CC1 | 0.701
Cc1c(F)cc(C(=O)NC2CC2)cc1-c1ccc2c(c1)c(C)nn2S(=O)(=O)c1cccs1 | 0.942
CC(C)C[C@H](NC(=O)OC(C)(C)C)C(=O)Nc1ccc(Cc2ccc(NC(=O)[C@H](CC(C)C)NC(=O)OC(C)(C)C)cc2)cc1 | 0.761
COc1ccc(CNC2CCCC2)cc1-c1ccc(S(=O)(=O)NCCN2CCCC2)s1 | 0.798
COc1ccc(N(c2nc(-c3cc(Cl)ccc3Cl)cs2)C2CCNCC2)cc1 | 1.09
O=C1SC(=Cc2ccc(O)c(O)c2)C(=O)N1c1ccccc1 | 1.2
CCOc1ccc(CNCCCCCCNCc2ccc(OCC)c3ccccc23)c2ccccc12 | 0.447
Cc1cc(-c2cc3nc4c(c(O)n3n2)CCCC4)c(C)o1 | 0.821
CC(C)(C)c1ccc(NC(=O)c2cccc(CN3CCCN(Cc4ccsc4)CC3)c2)cc1 | 0.76
O=C(Nc1ccc(-c2ccc(-c3nc4ccccc4[nH]3)cc2)cc1)Nc1ccc(Cl)c(Cl)c1 | 0.0988
Cc1c(Cc2ccc(C(C)C)cc2)cnc2nc(N)nc(N)c12 | 0.298

Structure (SMILES) | XC50 [µM]
COc1cccc(-c2ccc3c(-c4cccc(S(C)(=O)=O)c4)cnc(N)c3c2)c1 | 0.874
Cc1ccc(-n2c(C)nc3c(Nc4ccc(-c5ccncc5)cc4)ncnc32)c(C)c1 | 0.101
CN1CCC(NCc2cccc(-c3cnc(NCc4ccccc4)nc3)c2)CC1 | 0.965
CC(=O)Nc1cccc(Nc2nccc(Nc3ccc(Oc4ccccc4)cc3)n2)c1 | 0.745
O=C(Nc1ccc(-c2nc3ccccc3[nH]2)cc1)c1cnc(Cl)c(Cl)c1 | 0.728
CCn1c(SCc2ccccc2)nc2c1c(=O)[nH]c(=O)n2C | 0.241
COc1cc2c(cc1C(F)(F)F)N(C(=O)Nc1cc(OC(F)(F)F)cc(-c3cccnc3)c1)CC2 | 0.0415
CC(C)CNCc1cccc(-c2ccc(CNc3ccc(C(=O)c4ccccc4)cc3)cc2)c1 | 0.76
COC(=O)c1ccc(N2CCN(CCCCNC(=O)c3ccc(NC(=O)c4ccc(Cl)cc4)cc3)CC2)c(OC)c1 | 1.3
CCOCCCNc1nc2cc(OC)c(OC)cc2c2nc(-c3ccccc3)nn12 | 0.209
COc1cc2nccc(Nc3ccc4c(cnn4Cc4ccccc4F)c3)c2cc1OC | 0.4
Fc1ccc(C=NN=c2cc[nH]c3ccccc23)cc1 | 0.706
CCCC(=O)c1cnc2c(I)cccc2c1Nc1ccccc1C | 1.16
CSC1=NC(=Nc2ccccc2C)C2(CCC(C(C)(C)C)CC2)N1c1ccccc1Cl (centres undefined) | 0.8
CN1CCC[C@H]1COc1ccc(CN2CC[C@H](NC(=O)c3ccc(Cl)c(Cl)c3)C2)cc1Br | 0.983
CCOc1cc(C(=O)NC2CC(C)(C)NC(C)(C)C2)ccc1-c1nc2cc(Cl)ccc2[nH]1 | 0.992
CCOc1ccc(-c2nonc2NC(=O)c2cccs2)cc1OCC | 0.756
Cc1cccc2nc(-c3ccc(-c4cccc(CN5CCC(CO)CC5)c4)s3)[nH]c12 | 0.935
COc1ccc(-n2cc(CNCCCn3ccnc3)c(-c3cccc(F)c3)n2)cc1 | 1.06
CN(CCC(O)c1ccc(Cl)c(Cl)c1)CC1CC1C(=O)c1ccccc1 (centres undefined) | 0.794
COc1cc2c(C3CCN(CC4CCC(NC(=O)/C=C/c5ccc(Cl)c(Cl)c5)CC4)CC3)c[nH]c2cn1 (centres undefined) | 0.423
CCOc1ccccc1NC(=O)C(Sc1nc(C)cc(C)c1C#N)c1ccccc1 (centres undefined) | 0.373
CCC(C)c1ccc(NC(=O)Nc2ccnc3ccccc23)cc1 (centres undefined) | 0.625
Cc1ccc(O)cc1Nc1ccnc2cc(-c3csc(CNCCN4CCOCC4)n3)ccc12 | 0.884
